Read-outs that look alike come from different tables or passages of the source.
Key:
Surinam grass = test: Test B pre-/postemergence herbicide test; type: in vivo, Urochloa decumbens; conditions: Urochloa decumbens; for pest or weed control at 125 g/ha: 125 g ai/ha; for pest or weed control at 500 g/ha: 500 g ai/ha
Procedure, shortened: (§1)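 Plants compared with untreated controls 13–15 days post-treatment and given a visual 0–100 injury score. Applications: preemergence to seeds; postemergence at 1- to 4-leaf (2–18 cm); paddy species flooded, 2-leaf stage. Vehicle non-phytotoxic, surfactant included.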

corn = test: Test B pre-/postemergence herbicide test; type: in vivo, Zea mays; conditions: Zea mays; for plant injury at 125 g/ha: 125 g ai/ha
Procedure, shortened: as §1

large crabgrass = test: Test B pre-/postemergence herbicide test; type: in vivo, Digitaria sanguinalis; conditions: Digitaria sanguinalis; for pest or weed control at 125 g/ha: 125 g ai/ha; for pest or weed control at 500 g/ha: 500 g ai/ha
Procedure, shortened: as §1

giant foxtail = test: Test B pre-/postemergence herbicide test; type: in vivo, Setaria faberi; conditions: Setaria faberi, 336 h; for pest or weed control at 125 g/ha: 125 g ai/ha; for pest or weed control at 500 g/ha: 500 g ai/ha
Procedure, shortened: as §1

lambsquarters = test: Test B pre-/postemergence herbicide test; type: in vivo, Chenopodium album; conditions: Chenopodium album, 336 h; for pest or weed control at 125 g/ha: 125 g ai/ha; for pest or weed control at 500 g/ha: 500 g ai/ha
Procedure, shortened: as §1

morningglory = test: Test B pre-/postemergence herbicide test; type: in vivo, Ipomoea coccinea; conditions: Ipomoea, 336 h; for pest or weed control at 125 g/ha: 125 g ai/ha; for pest or weed control at 500 g/ha: 500 g ai/ha
Procedure, shortened: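 Pre: seeds sown, then sprayed. Post: 1–4-leaf plants (2–18 cm) sprayed at the same time. Paddy: flooded, treated at 2-leaf stage. Formulation: non-phytotoxic solvent with surfactant. Greenhouse 13–15 days; visual 0–100 score relative to controls.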

pigweed = test: Test B pre-/postemergence herbicide test; type: in vivo, Amaranthus retroflexus; conditions: Amaranthus retroflexus, 336 h; for pest or weed control at 125 g/ha: 125 g ai/ha; for pest or weed control at 500 g/ha: 500 g ai/ha
Procedure, shortened: as §1

velvetleaf = test: Test B pre-/postemergence herbicide test; type: in vivo, Abutilon theophrasti; conditions: Abutilon theophrasti, 336 h; for pest or weed control at 125 g/ha: 125 g ai/ha; for pest or weed control at 500 g/ha: 500 g ai/ha
Procedure, shortened: as §1

blackgrass = test: Test B postemergence herbicide test; type: in vivo, Alopecurus myosuroides; conditions: Alopecurus myosuroides, post-emergence, 336 h, postemergence, visual rating, scale 0 (no effect) to 100 (complete control), read-out: Blackgrass plant response rating
Procedure, shortened: (§2)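 Read-out: visual comparison with controls, scored 0 to 100, where 100 means complete control and 0 no effect. Formulated chemicals were applied postemergence to plants 2–18 cm tall (1- to 4-leaf), or to flooded-paddy plants at the 2-leaf stage, then held 13 to 15 days under glass.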

wheat = test: Test B postemergence herbicide test; type: in vivo, Triticum aestivum; conditions: Triticum aestivum, post-emergence, 336 h, postemergence, read-out: Wheat plant response rating
Procedure, shortened: as §2

wild oat = test: Test B postemergence herbicide test; type: in vivo, Avena fatua; conditions: Avena fatua, post-emergence, 336 h, postemergence, read-out: Oat, Wild plant response rating
Procedure, shortened: as §2

rice = test: Test B flooded paddy test; type: in vivo, Oryza sativa; conditions: Oryza sativa, 336 h, 1000 g ai/ha, scale 0 to 100 (0 no effect, 100 complete control), read-out: Rice plant response rating
Procedure, shortened: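 Formulated test chemicals went onto postemergence plants measuring 2 to 18 cm, at one to four leaves. For the paddy assay, species had reached two leaves. Scoring took place 13–15 days later by eye, relative to untreated plants, using 0 for no effect up to 100 for full control.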

[1] = test system: small flower umbrella sedge; test: Test B flooded paddy test; type: in vivo, Cyperus difformis; conditions: Cyperus difformis, 336 h, 1000 g ai/ha, scale 0 to 100 (0 no effect, 100 complete control), read-out: Sedge, Umbrella plant response rating
Procedure, shortened: as §2

ducksalad = test: Test B flooded paddy test; type: in vivo, Heteranthera limosa; conditions: Heteranthera limosa, 336 h, 1000 g ai/ha, scale 0 to 100 (0 no effect, 100 complete control), read-out: Ducksalad plant response rating
Procedure, shortened: as §2

barnyardgrass = test: Test B flooded paddy test; type: in vivo, Echinochloa crus-galli; conditions: Echinochloa crus-galli, 336 h, 1000 g ai/ha, scale 0 to 100 (0 no effect, 100 complete control), read-out: Barnyardgrass plant response rating
Procedure, shortened: as §2

[2] = 125 g ai/ha, visual rating, scale 0 (no effect) to 100 (complete control)
[3] = 500 g ai/ha, scale 0 to 100, 0 is no effect, 100 is complete control

Q: For `CCN1N=C(C(C)(C)C)CC1C(=O)Nc1cc(C(=O)N(C)C)ccc1F` (stereo not drawn) [Compound 268, N-[5-[(dimethylamino)carbonyl]-2-fluorophenyl]-3-(1,1-dimethylethyl)-1-ethyl-4,5-dihydro-1H-pyrazole-5-carboxamide], which pest or weed control at 125 g/ha (Surinam grass; post-emergence, postemergence, visual rating, scale 0 (no effect) to 100 (complete control), read-out: Surinam Grass plant response rating) is on record?
A: 10%

Q: What about the pest or weed control at 500 g/ha (Surinam grass; post-emergence, postemergence, scale 0 to 100, 0 is no effect, 100 is complete control, read-out: Surinam Grass plant response rating) of the same compound?
A: 50%

Q: What about the pest or weed control at 125 g/ha (Surinam grass; pre-emergence, 0 = no effect, 100 = complete control, read-out: Surinam Grass plant response rating (0 to 100 scale)) of the same compound?
A: 80%

Q: And the pest or weed control at 500 g/ha (Surinam grass; pre-emergence, visual rating, 0 = no effect, 100 = complete control, read-out: Plant response rating, Surinam Grass)?
A: 100%

Q: What about the plant injury at 125 g/ha (corn; post-emergence, postemergence, visual rating, scale 0 (no effect) to 100 (complete control), read-out: Corn plant response rating) of the same compound?
A: 20%

Q: And the plant injury at 500 g/ha (corn; post-emergence, postemergence, 500 g ai/ha, scale 0 to 100, 0 is no effect, 100 is complete control, read-out: Corn plant response rating)?
A: 30%

Q: And the plant injury at 125 g/ha (corn; pre-emergence, 0 = no effect, 100 = complete control, read-out: Corn plant response rating (0 to 100 scale))?
A: 80%

Q: What about the Corn plant response rating (crop injury, 0 = no effect, 100 = complete kill) at 500 g/ha (corn; pre-emergence, 500 g ai/ha, visual rating, 0 = no effect, 100 = complete control) of the same compound?
A: 90%

Q: And the pest or weed control at 125 g/ha (large crabgrass; post-emergence, postemergence, visual rating, scale 0 (no effect) to 100 (complete control), read-out: Crabgrass, Large plant response rating)?
A: 0%

Q: And the pest or weed control at 500 g/ha (large crabgrass; post-emergence, postemergence, scale 0 to 100, 0 is no effect, 100 is complete control, read-out: Crabgrass, Large plant response rating)?
A: 20%

Q: And the pest or weed control at 125 g/ha (large crabgrass; pre-emergence, 0 = no effect, 100 = complete control, read-out: Crabgrass, Large plant response rating (0 to 100 scale))?
A: 100%

Q: What about the pest or weed control at 500 g/ha (large crabgrass; pre-emergence, visual rating, 0 = no effect, 100 = complete control, read-out: Plant response rating, Crabgrass, Large) of the same compound?
A: 100%

Q: And the pest or weed control at 125 g/ha (giant foxtail; post-emergence, postemergence, visual rating, scale 0 (no effect) to 100 (complete control), read-out: Foxtail, Giant plant response rating)?
A: 10%

Q: And the pest or weed control at 500 g/ha (giant foxtail; post-emergence, postemergence, scale 0 to 100, 0 is no effect, 100 is complete control, read-out: Foxtail, Giant plant response rating)?
A: 20%

Q: And the pest or weed control at 125 g/ha (giant foxtail; pre-emergence, 0 = no effect, 100 = complete control, read-out: Foxtail, Giant plant response rating (0 to 100 scale))?
A: 100%

Q: What about the pest or weed control at 500 g/ha (giant foxtail; pre-emergence, visual rating, 0 = no effect, 100 = complete control, read-out: Plant response rating, Foxtail, Giant) of the same compound?
A: 100%

Q: And the pest or weed control at 125 g/ha (lambsquarters; post-emergence, postemergence, visual rating, scale 0 (no effect) to 100 (complete control), read-out: Lambsquarters plant response rating)?
A: 60%

Q: What about the pest or weed control at 500 g/ha (lambsquarters; post-emergence, postemergence, scale 0 to 100, 0 is no effect, 100 is complete control, read-out: Lambsquarters plant response rating) of the same compound?
A: 70%

Q: What about the pest or weed control at 125 g/ha (lambsquarters; pre-emergence, 0 = no effect, 100 = complete control, read-out: Lambsquarters plant response rating (0 to 100 scale)) of the same compound?
A: 100%

Q: What about the pest or weed control at 500 g/ha (lambsquarters; pre-emergence, visual rating, 0 = no effect, 100 = complete control, read-out: Plant response rating, Lambsquarters) of the same compound?
A: 100%

Q: And the pest or weed control at 125 g/ha (morningglory; post-emergence, postemergence, visual rating, scale 0 (no effect) to 100 (complete control), read-out: Morningglory plant response rating)?
A: 10%

Q: What about the pest or weed control at 500 g/ha (morningglory; post-emergence, postemergence, scale 0 to 100, 0 is no effect, 100 is complete control, read-out: Morningglory plant response rating) of the same compound?
A: 20%

Q: What about the pest or weed control at 125 g/ha (morningglory; pre-emergence, 0 = no effect, 100 = complete control, read-out: Morningglory plant response rating (0 to 100 scale)) of the same compound?
A: 0%

Q: And the pest or weed control at 500 g/ha (morningglory; pre-emergence, visual rating, 0 = no effect, 100 = complete control, read-out: Plant response rating, Morningglory)?
A: 20%

Q: And the pest or weed control at 125 g/ha (pigweed; post-emergence, postemergence, visual rating, scale 0 (no effect) to 100 (complete control), read-out: Pigweed plant response rating)?
A: 20%

Q: What about the pest or weed control at 500 g/ha (pigweed; post-emergence, postemergence, scale 0 to 100, 0 is no effect, 100 is complete control, read-out: Pigweed plant response rating) of the same compound?
A: 50%

Q: And the pest or weed control at 125 g/ha (pigweed; pre-emergence, 0 = no effect, 100 = complete control, read-out: Pigweed plant response rating (0 to 100 scale))?
A: 100%

Q: What about the pest or weed control at 500 g/ha (pigweed; pre-emergence, visual rating, 0 = no effect, 100 = complete control, read-out: Plant response rating, Pigweed) of the same compound?
A: 100%

Q: What about the pest or weed control at 125 g/ha (velvetleaf; post-emergence, postemergence, visual rating, scale 0 (no effect) to 100 (complete control), read-out: Velvetleaf plant response rating) of the same compound?
A: 20%

Q: What about the pest or weed control at 500 g/ha (velvetleaf; post-emergence, postemergence, scale 0 to 100, 0 is no effect, 100 is complete control, read-out: Velvetleaf plant response rating) of the same compound?
A: 60%

Q: What about the pest or weed control at 125 g/ha (velvetleaf; pre-emergence, 0 = no effect, 100 = complete control, read-out: Velvetleaf plant response rating (0 to 100 scale)) of the same compound?
A: 100%

Q: And the pest or weed control at 500 g/ha (velvetleaf; pre-emergence, visual rating, 0 = no effect, 100 = complete control, read-out: Plant response rating, Velvetleaf)?
A: 100%

Q: What about the pest or weed control at 125 g/ha (blackgrass; 125 g ai/ha) of the same compound?
A: 30%

Q: What about the pest or weed control at 500 g/ha (blackgrass; 500 g ai/ha) of the same compound?
A: 50%

Q: What about the plant injury at 125 g/ha (wheat; [2]) of the same compound?
A: 30%

Q: What about the plant injury at 500 g/ha (wheat; [3]) of the same compound?
A: 30%

Q: And the pest or weed control at 125 g/ha (wild oat; [2])?
A: 30%

Q: What about the pest or weed control at 500 g/ha (wild oat; [3]) of the same compound?
A: 50%

Q: What about the plant injury at 1000 g/ha (rice) of the same compound?
A: 90%

Q: And the pest or weed control at 1000 g/ha [1]?
A: 80%

Q: And the pest or weed control at 1000 g/ha (ducksalad)?
A: 90%

Q: And the pest or weed control at 1000 g/ha (barnyardgrass)?
A: 90%
